Reference: patent US9527859B2, “Amidopyridine derivative and use thereof” (Mitsubishi Tanabe Pharma Corporation, priority 2012, dated 2016)

Assay: Single dose toxicity study in dogs
Assay type: in vivo, dog
Settings: beagle dogs, single oral dose 10, 30, 100 mg/kg
Method: Single Dose Toxicity Study in Dogs
The study was carried out with TOYO beagles (KITAYAMA LABES CO., LTD., Hongou farm), four dogs per each sex. They were 5-month old on arrival at testing facility, and were 10-month old when started to be administered. Basal diet was 300 g/day, DS-A (Oriental Yeast Co., Ltd.), and drinking water was tap water. Allocation to the groups was carried out so that an animal number was allocated in order of quarantine number for males and females respectively whose clinical signs and results of clinical laboratory test were considered to be normal.
As to a dosing suspension, 0.5 w/v % HPMC aqueous solution was used as a vehicle, the required amounts of test compound were pre-weighed for each dose group, and it was prepared in a specified concentration with mortar and pestleon the day of administration. Dose volume was 5 mL/kg (calculated on the basis of body weight measured on the day of administration). […]
A clinical sign was observed before administration and during TK blood sampling on the day of administration, and once in the morning every day on the day other than administration. Body weight was measured in the pre-dosing term (−5th day, −1st day), on the day of administration and on the next day after administration.
Feeding was carried out every day, and food consumption (g/day) was calculated from the remaining food in the next morning after feeding. […]

SMILES: Cc1c(C(=O)Nc2cnc(N3CCC(O)CC3)c(C3CC3)c2)cnn1-c1ccc(Cl)cc1 [Example 39, 1-(4-chlorophenyl)-N-[5-cyclopropyl-6-(4-hydroxypiperidin-1-yl)pyridin-3-yl]-5-methyl-1H-pyrazole-4-carboxamide]
- Changes caused by administration (clinical signs, body weight, food consumption, hematology, blood chemistry incl. ALT, AST, TBil): no changes caused by administration were found in any doses
